Reference: patent publication US20020155519A1 (priority 1997, published 2002)
“Also recorded” adds a separate entry of the source.

test system: human blood bacterium (HBB); type: cell-based; conditions: not given
Protocol: Normally 1 ml of serum was added to 9 ml of medium. Larger flasks with a proportionately larger amount of serum and medium are used to produce bacteria in quantity. Modulators might be added to some flasks in 10× or higher concentration (corresponding to addition of 1 ml or less). When examining the effect of modulators, control flasks were prepared similarly without the addition of the modulator. Levels were observed microscopically (inverted phase microscope, observing the number of organisms per field crudely or by actual count) after incubation, typically at several points in time.
When multiple comparisons were done at once, they were done in 12 well or 24 well cell culture plates, most often the latter. With the latter, typically 1 ml of medium inoculated with serum is added to each well, with modulators added at 10× or higher concentration (0.1 ml or less). When comparisons are done in well plates, control wells without any additions are included. Levels were observed microscopically (inverted phase microscope) after incubation, typically at several points in time. The well plate cultures were also used for antibiotic sensitivity testing.
These procedures are those known in the art and include uses of antibodies and DNA probes, Western and Southern blots, PCR and the diagnostic kits therefor. First, organisms can be quantified by culture. […] If a means is found to immobilize the bacteria to grow isolated colonies, counts will be more accurate. Quantification is used to follow the progress of treatment and to correlate HBB levels with specific disease syndromes. Quantification is used also for antibiotic sensitivity measurements, comparing the level of growth with antibiotic treatment to the level of growth without treatment. Such antibiotic sensitivity measurements establish the basis for the clinical choice of antibiotic drugs.

Compound	antibiotic sensitivity of HBB strains/isolates in culture	observed antibiotic and antifungal sensitivities (outcome, number of isolates)
Cc1cc(NS(=O)(=O)c2ccc(N)cc2)no1 [sulfamethoxazole]	no effect (1 isolate)	–
CN[C@H](CC(C)C)C(=O)N[C@H]1C(=O)N[C@@H](CC(N)=O)C(=O)N[C@H]2C(=O)N[C@H]3C(=O)N[C@H](C(=O)N[C@H](C(=O)O)c4cc(O)cc(O)c4-c4cc3ccc4O)[C@H](O)c3ccc(c(Cl)c3)Oc3cc2cc(c3O[C@@H]2O[C@H](CO)[C@@H](O)[C@H](O)[C@H]2O[C@H]2C[C@](C)(N)[C@H](O)[C@H](C)O2)Oc2ccc(cc2Cl)[C@H]1O [vancomycin]	–	no effect (1 isolate)
CC1=C(C(=O)O)N2C(=O)[C@@H](NC(=O)[C@H](N)c3ccccc3)[C@H]2SC1 [cephalexin]	–	no effect (1 isolate)
CC1=C(C(=O)O)N2C(=O)[C@@H](NC(=O)[C@H](N)c3ccc(O)cc3)[C@H]2SC1 [cefadroxil]	–	no effect (1 isolate)
Cc1onc(-c2ccccc2)c1C(=O)N[C@@H]1C(=O)N2[C@@H]1SC(C)(C)[C@@H]2C(=O)O [oxacillin]	occasional isolates show higher sensitivity	–

same assay, conditions: 2 μg/ml

Compound	observed antibiotic and antifungal sensitivities (outcome, number of isolates)
Cc1cccc(N(C)C(=S)Oc2ccc3ccccc3c2)c1 [tolnaftate]	no effect (1 isolate)

same assay, conditions: 4 μg/ml

Compound	observed antibiotic and antifungal sensitivities (outcome, number of isolates)
CCn1cc(C(=O)O)c(=O)c2ccc(C)nc21 [nalidixic acid]	no effect (1 isolate)

same assay, conditions: concentration not printed

Compound	antibiotic sensitivity of HBB strains/isolates in culture
CC1(C)S[C@@H]2[C@H](NC(=O)Cc3ccccc3)C(=O)N2[C@H]1C(=O)O [penicillin G]	relatively sensitive

test system: human blood bacterium (HBB); type: cell-based; conditions: not given; remark: another data set of the same source

Compound	effect on HBB growth in culture	optimum concentration for stimulation of HBB growth [µg/mL]	effect on reduction of cell wall-defective forms
CN(C)c1ccc2nc3ccc(=[N+](C)C)cc-3sc2c1 [methylene blue]	Little or no stimulation or inhibition	–	–
[Fe] [iron]	stimulated	–	–
(oxidized) arachidonate	might also be stimulated	–	–
CSCC[C@H](N)C(=O)O [methionine]	appears to do so less consistently	–	–
C1COCCN1 [morpholine]	slight stimulation	–	–
[N-]=[N+]=[N-] [azide, reference compound]	little effect on growth	–	–
[Mn+2] [manganese]	stimulated	1	–
CCO [ethanol]	Some stimulation of growth	–	–
mercury	possibly; also recorded: stimulated	–	–
CO [methanol]	minimal or no stimulation of growth	–	–
OCCS [2-mercaptoethanol]	no significant effect	–	–
N.N.O=S(=O)(O)O [ammonium sulfate]	Little or no stimulation or inhibition; also recorded: no effect	–	–
NC12CC3CC(CC(C3)C1)C2 [amantadine, reference compound]	Little or no stimulation or inhibition	–	–
OO [hydrogen peroxide]	might also be stimulated	–	–
CC(=O)N[C@@H](CS)C(=O)O [N-acetyl cysteine]	Little or no stimulation or inhibition; also recorded: no significant effect	–	–
CC(C)CCO [isoamyl alcohol]	Some stimulation of growth	–	–
titanium ethoxide	slight stimulation	–	–
CCCCO [n-butanol]	Some stimulation of growth	–	–
NCCCNCCCCNCCCN [spermine]	Little or no stimulation or inhibition	–	–
C[C@@H](O[C@H]1[C@H](O)[C@@H](CO)OC(O)[C@@H]1N)C(=O)O (stereo partly drawn) [muramic acid]	–	–	no effect

same assay, conditions: 2 μg/ml

Compound	effect on HBB growth in culture
C[N+](C)(C)C[C@H](O)CC(=O)[O-] [L-carnitine]	Little or no stimulation or inhibition

same assay, conditions: 3 μg/ml

Compound	effect on HBB growth in culture
NCCOP(=O)(O)O [phosphorylethanolamine]	Little or no stimulation or inhibition

same assay, conditions: 4 μg/ml

Compound	effect on HBB growth in culture
O=C(O)c1cc(=O)[nH]c(=O)[nH]1 [orotic acid]	Little or no stimulation or inhibition

same assay, conditions: 10 μg/ml

Compound	effect on HBB growth in culture
OCCS [2-mercaptoethanol]	Little or no stimulation or inhibition
O[C@@H](CS)[C@@H](O)CS [dithiotheitol]	Little or no stimulation or inhibition

same assay, conditions: 14 μg/ml

Compound	effect on HBB growth in culture
O=c1ccc2[n+]([O-])c3ccc(O)cc3oc-2c1 [resazurin]	Little or no stimulation or inhibition
CCN(CC)CN(CC)CC [tetraethylmethylenediamine]	slight stimulation
O=BOB(O)OB(O)OB=O [borax]	Little or no stimulation or inhibition

same assay, conditions: 20 μg/ml

Compound	effect on HBB growth in culture
N[C@@H](CS)C(=O)O [cysteine]	Little or no stimulation or inhibition
NCCS(=O)(=O)O [taurine]	Little or no stimulation or inhibition

same assay, conditions: 20 μg/ml; listed as Cysteine

Compound	effect on HBB growth in culture
N[C@@H](CS)C(=O)O [cysteine]	appears to inhibit growth in some isolates

same assay, conditions: 1/14 saturated

Compound	effect on HBB growth in culture
O=C(c1ccccc1)c1ccccc1 [benzophenone]	slight stimulation
c1ccc(Nc2ccccc2)cc1 [diphenylamine]	slight stimulation
dichlorophenylenediamine	Little or no stimulation or inhibition

same assay, conditions: added to ½ strength medium O or RPMI

Compound	effect on HBB growth in culture
CN(C)C [trimethylamine]	minimal or no stimulation of growth
COP(=O)(OC)OC [trimethyl phosphate]	minimal or no stimulation of growth
COC(C)=O [methyl acetate]	minimal or no stimulation of growth

same assay, conditions: addition of cell wall precursors

Compound	effect on reduction of cell wall-defective forms
CC(=O)N[C@H]1C(O)O[C@H](CO)[C@@H](O)[C@@H]1O[C@H](C)C(=O)O (stereo partly drawn) [N-acetylmuramic acid]	no effect
N[C@H](CCC[C@H](N)C(=O)O)C(=O)O [diaminopimelic acid]	no effect
CC(=O)N[C@H]1C(O)O[C@H](CO)[C@@H](O[C@@H]2O[C@H](CO)[C@H](O)[C@H](O)[C@H]2O)[C@@H]1O (stereo partly drawn) [N-acetyllactoasamine]	no effect
CC(=O)N[C@H]1C(O)O[C@H](CO)[C@@H](O)[C@@H]1O (stereo partly drawn) [N-acetylglucosamine]	no effect

same assay, conditions: concentration not printed

Compound	effect on HBB growth in culture
[Cu] [copper]	stimulated
[I-].[K+] [potassium iodide]	Little or no stimulation or inhibition
CN(Cc1cnc2nc(N)nc(N)c2n1)c1ccc(C(=O)N[C@@H](CCC(=O)O)C(=O)O)cc1 [methotrexate, reference compound]	no inhibition
OC[C@H]1O[C@H](OC[C@H]2O[C@H](O[C@]3(CO)O[C@H](CO)[C@@H](O)[C@@H]3O)[C@H](O)[C@@H](O)[C@@H]2O)[C@H](O)[C@@H](O)[C@H]1O [raffinose]	support growth
OC[C@H]1O[C@@](CO)(O[C@H]2O[C@H](CO)[C@@H](O)[C@H](O)[C@H]2O)[C@@H](O)[C@@H]1O [sucrose]	support growth
O=C(CO)[C@@H](O)[C@H](O)[C@H](O)CO [fructose]	support growth
[Sn] [tin]	stimulated
[Mg+2] [magnesium]	little effect on the growth
O=C(O)c1ccccn1 [picolinic acid]	Little or no stimulation or inhibition
chromium picolinate	Little or no stimulation or inhibition
dextran	support growth
OC[C@H]1O[C@H](OCC2O[C@@H](O)[C@H](O)[C@@H](O)[C@@H]2O)[C@H](O)[C@@H](O)[C@H]1O (stereo partly drawn) [meilibose]	support growth
[Ag] [silver]	stimulated
N[C@@H](CS)C(=O)O [cysteine]	suppresses growth of some strains; also recorded: stimulates other strains
[Cr] [chromium]	no inhibition of bacterial growth
silver proteinate	Little or no stimulation or inhibition
[Zn] [zinc]	suppresses the growth; also recorded: inhibited
CC(=O)N[C@H]1C(O)O[C@H](CO)[C@@H](O[C@@H]2O[C@H](CO)[C@H](O)[C@H](O)[C@H]2O)[C@@H]1O (stereo partly drawn) [N-acetyllactoasamine]	some stimulation of culture growth
NCCS(=O)(=O)O [taurine]	no effect on cultures
OC[C@H]1O[C@@H](O[C@H]2[C@H](O)[C@@H](O)C(O)O[C@@H]2CO)[C@H](O)[C@@H](O)[C@H]1O (stereo partly drawn) [lactose]	support growth
O[C@@H](CS)[C@@H](O)CS [dithiotheitol]	no significant effect

same assay, conditions: ⅕ saturated

Compound	effect on HBB growth in culture
COC1=C(OC)C(=O)C(C/C=C(\C)CC/C=C(\C)CC/C=C(\C)CC/C=C(\C)CC/C=C(\C)CC/C=C(\C)CC/C=C(\C)CC/C=C(\C)CC/C=C(\C)CCC=C(C)C)=C(C)C1=O [ubiquinone (Q10)]	slight stimulation
